Several values for one entry are separate records, joined by “and”; a condition that tells them apart may be missing. Identical values can stand only once. Toxic doses and inconclusive results are not listed.
System: BDF1 mice, P388 leukemia ip, median survival T/C
Experiment: NCI In Vivo Anticancer Drug Screen. Data for tumor model P388 Leukemia (intraperitoneal) in B6D2F1 (BDF1) mice
Settings: endpoint: median survival time, higher = longer survival
Outline: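 Mice carrying the transplantable tumour receive compound or vehicle. Survival is followed in each arm, and the treated measure is divided by the vehicle measure.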

[1] = dose: 6.25 mg/kg/injection, schedule: Q01DX009 (ip), vehicle: saline
[2] = dose: 12.5 mg/kg/injection, schedule: Q01DX009 (ip), vehicle: saline
[3] = dose: 50.0 mg/kg/injection, schedule: Q01DX009 (ip), vehicle: saline
[4] = dose: 100.0 mg/kg/injection, schedule: Q01DX009 (ip), vehicle: saline with Tween-80
[5] = dose: 200.0 mg/kg/injection, schedule: Q01DX009 (ip), vehicle: saline with Tween-80
[6] = dose: 100.0 mg/kg/injection, schedule: Q04DX003 (ip), vehicle: Klucel (hydroxypropylcellulose) (HPC)
[7] = dose: 200.0 mg/kg/injection, schedule: Q04DX003 (ip), vehicle: Klucel (hydroxypropylcellulose) (HPC)
[8] = dose: 400.0 mg/kg/injection, schedule: Q04DX003 (ip), vehicle: Klucel (hydroxypropylcellulose) (HPC)
[9] = dose: 25.0 mg/kg/injection, schedule: Q01DX009 (ip), vehicle: saline with Tween-80
[10] = dose: 50.0 mg/kg/injection, schedule: Q01DX009 (ip), vehicle: saline with Tween-80
[11] = dose: 50.0 mg/kg/injection, schedule: Q01DX009 (ip), vehicle: water
[12] = dose: 100.0 mg/kg/injection, schedule: Q01DX009 (ip), vehicle: water
[13] = dose: 100.0 mg/kg/injection, schedule: Q04DX003 (ip), vehicle: water
[14] = dose: 200.0 mg/kg/injection, schedule: Q01DX009 (ip), vehicle: water
[15] = dose: 200.0 mg/kg/injection, schedule: Q04DX003 (ip), vehicle: water
[16] = dose: 400.0 mg/kg/injection, schedule: Q04DX003 (ip), vehicle: water

For `CO[C@H]1C[C@H](O[C@H]2CC[C@]3(C=O)[C@H]4CC[C@]5(C)[C@@H](C6=CC(=O)OC6)CC[C@]5(O)[C@@H]4CC[C@]3(O)C2)O[C@H](C)[C@H]1O`, the T/C (dose: 0.62 mg/kg/injection, schedule: Q01DX010 (ip), vehicle: steriod suspending solution) was 95 % of control, the T/C (dose: 1.25 mg/kg/injection, schedule: Q01DX010 (ip), vehicle: steriod suspending solution) was 90 % of control and the T/C (dose: 2.5 mg/kg/injection, schedule: Q01DX010 (ip), vehicle: steriod suspending solution) was 95 % of control. The T/C (dose: 5.0 mg/kg/injection, schedule: Q01DX010 (ip), vehicle: steriod suspending solution) was 90 % of control.
For `CN(C)CCCN1c2ccccc2Sc2ccc(Cl)cc21`, the T/C [1] was 109 % of control, the T/C [2] was 109 % of control and the T/C (dose: 12.5 mg/kg/injection, schedule: Q04DX003 (ip), vehicle: saline with Tween-80) was 104 % of control. For the same compound, the T/C (dose: 12.5 mg/kg/injection, schedule: Q04DX003 (ip), vehicle: saline) was 106 % of control, the T/C (dose: 25.0 mg/kg/injection, schedule: Q04DX003 (ip), vehicle: saline with Tween-80) was 108 % of control and the T/C (dose: 25.0 mg/kg/injection, schedule: Q04DX003 (ip), vehicle: saline) was 89 % of control. For the same compound, the T/C (dose: 50.0 mg/kg/injection, schedule: Q04DX003 (ip), vehicle: saline) was 112 % of control.
With `CN(C)C(=O)c1ccc(C(C)(C)C)cc1` the T/C (dose: 12.5 mg/kg/injection, schedule: Q01DX009 (ip), vehicle: other) was 104 % of control, the T/C (dose: 12.5 mg/kg/injection, schedule: Q04DX003 (ip), vehicle: other) was 106 % of control and the T/C (dose: 25.0 mg/kg/injection, schedule: Q01DX009 (ip), vehicle: other) was 103 % of control. The T/C (dose: 25.0 mg/kg/injection, schedule: Q04DX003 (ip), vehicle: other) was 121 % of control, the T/C (dose: 50.0 mg/kg/injection, schedule: Q01DX009 (ip), vehicle: other) was 113 % of control and the T/C (dose: 50.0 mg/kg/injection, schedule: Q04DX003 (ip), vehicle: other) was 97 % of control. The T/C (dose: 100.0 mg/kg/injection, schedule: Q01DX009 (ip), vehicle: other) was 101 % of control, the T/C (dose: 100.0 mg/kg/injection, schedule: Q04DX003 (ip), vehicle: other) was 106 % of control and the T/C (dose: 200.0 mg/kg/injection, schedule: Q04DX003 (ip), vehicle: other) was 95 % of control.
In the case of `N=C(N)SCCN1C(=O)NC(c2ccccc2)(c2ccccc2)C1=O`, the T/C [1] is reported as 96 % of control and 99 % of control, the T/C [2] is reported as 90 % of control and 104 % of control and the T/C (dose: 25.0 mg/kg/injection, schedule: Q01DX009 (ip), vehicle: saline) is reported as 93 % of control and 105 % of control. For the same compound, the T/C [3] was 102 % of control and 105 % of control and the T/C (dose: 100.0 mg/kg/injection, schedule: Q01DX009 (ip), vehicle: saline) was 106 % of control and 120 % of control.
In the case of `CC(=O)CC(C)=O.CC(=O)CC(C)=O.Cn1ccnc1.Cn1ccnc1.[Ni]`, the T/C (dose: 12.5 mg/kg/injection, schedule: Q04DX002 (ip), vehicle: saline) is reported as 103 % of control, the T/C (dose: 25.0 mg/kg/injection, schedule: Q04DX002 (ip), vehicle: saline) is reported as 107 % of control and the T/C (dose: 50.0 mg/kg/injection, schedule: Q04DX002 (ip), vehicle: saline) is reported as 119 % of control.
In the case of `CCCOn1nnc2cc(Cl)ccc21`, the T/C [4] is reported as 100 % of control and the T/C [5] is reported as 92 % of control.
In the case of `CN(N=O)C(=O)NC(N)=O`, the T/C (dose: 1.5 mg/kg/injection, schedule: Q01DX009 (ip), vehicle: saline) is reported as 99 % of control, the T/C (dose: 2.3 mg/kg/injection, schedule: Q01DX009 (ip), vehicle: saline) is reported as 115 % of control and the T/C (dose: 5.4 mg/kg/injection, schedule: Q01DX009 (ip), vehicle: saline) is reported as 152 % of control. The T/C (dose: 11.0 mg/kg/injection, schedule: Q01DX009 (ip), vehicle: Klucel (hydroxypropylcellulose) (HPC)) was 161 % of control, the T/C (dose: 12.0 mg/kg/injection, schedule: Q04DX003 (ip), vehicle: Klucel (hydroxypropylcellulose) (HPC)) was 118 % of control and the T/C (dose: 12.5 mg/kg/injection, schedule: Q01DX009 (ip), vehicle: Klucel (hydroxypropylcellulose) (HPC)) was 155 % of control. For the same compound, the T/C [2] was 165 % of control and 174 % of control, the T/C (dose: 16.0 mg/kg/injection, schedule: Q01DX009 (ip), vehicle: Klucel (hydroxypropylcellulose) (HPC)) was 186 % of control and the T/C (dose: 16.5 mg/kg/injection, schedule: Q01DX009 (ip), vehicle: Klucel (hydroxypropylcellulose) (HPC)) was 250 % of control and 161 % of control. The T/C (dose: 18.0 mg/kg/injection, schedule: Q01DX009 (ip), vehicle: saline) was 170 % of control, the T/C (dose: 22.0 mg/kg/injection, schedule: Q04DX003 (ip), vehicle: Klucel (hydroxypropylcellulose) (HPC)) was 122 % of control and the T/C (dose: 25.0 mg/kg/injection, schedule: Q01DX009 (ip), vehicle: Klucel (hydroxypropylcellulose) (HPC)) was 159 % of control and 207 % of control. The T/C (dose: 37.5 mg/kg/injection, schedule: Q01DX009 (ip), vehicle: Klucel (hydroxypropylcellulose) (HPC)) was 100 % of control and 105 % of control, the T/C [3] was 105 % of control and the T/C (dose: 50.0 mg/kg/injection, schedule: Q04DX003 (ip), vehicle: Klucel (hydroxypropylcellulose) (HPC)) was 200 % of control. For the same compound, the T/C (dose: 75.0 mg/kg/injection, schedule: Q04DX003 (ip), vehicle: Klucel (hydroxypropylcellulose) (HPC)) was 122 % of control.
`CSc1ssc(=Nc2ccc(C)cc2)c1-c1ccccc1` was tested, and the T/C [6] was 105 % of control, the T/C (dose: 200.0 mg/kg/injection, schedule: Q01DX009 (ip), vehicle: Klucel (hydroxypropylcellulose) (HPC)) was 90 % of control and the T/C [7] was 100 % of control. The T/C (dose: 400.0 mg/kg/injection, schedule: Q01DX009 (ip), vehicle: Klucel (hydroxypropylcellulose) (HPC)) was 95 % of control and the T/C [8] was 95 % of control.
In the case of `C1CC2CCC1CNC2`, the T/C [9] is reported as 95 % of control, the T/C [10] is reported as 100 % of control and the T/C [4] is reported as 100 % of control.
For `CC(=O)n1ncc2ccc(N)cc21`, the T/C (dose: 25.0 mg/kg/injection, schedule: Q01DX009 (ip), vehicle: water) was 94 % of control, the T/C [11] was 96 % of control and the T/C (dose: 50.0 mg/kg/injection, schedule: Q04DX003 (ip), vehicle: water) was 103 % of control. For the same compound, the T/C [12] was 102 % of control, the T/C [13] was 103 % of control and the T/C [14] was 99 % of control. The T/C [15] was 101 % of control and the T/C [16] was 120 % of control.
For `N/N=C(/C=C/C(=O)O)c1ccccc1`, the T/C (dose: 100.0 mg/kg/injection, schedule: Q01DX001 (ip), vehicle: saline sonified) was 100 % of control, the T/C (dose: 200.0 mg/kg/injection, schedule: Q01DX001 (ip), vehicle: saline sonified) was 109 % of control and the T/C (dose: 400.0 mg/kg/injection, schedule: Q01DX001 (ip), vehicle: saline sonified) was 100 % of control.
`COC1=C(c2ccccc2)C(=O)CCc2ccccc21` was tested, and the T/C [6] was 100 % of control, the T/C [7] was 100 % of control and the T/C [8] was 100 % of control.
For `COC(=O)C1(C)CCCC2(C)C1CCC13OCC(CC21)C(=C(C)C)C3OC(C)=O` (centres undefined), the T/C [4] was 100 % of control, the T/C [5] was 100 % of control and the T/C (dose: 400.0 mg/kg/injection, schedule: Q01DX009 (ip), vehicle: saline with Tween-80) was 90 % of control.
`Cc1c(C#N)c2nc(C(=O)c3ccc(Br)cc3)cc(-c3ccc(Br)cc3)n2c1C` was tested, and the T/C [9] was 109 % of control, the T/C [10] was 104 % of control and the T/C (dose: 50.0 mg/kg/injection, schedule: Q04DX003 (ip), vehicle: saline with Tween-80) was 87 % of control. The T/C [4] was 104 % of control, the T/C (dose: 100.0 mg/kg/injection, schedule: Q04DX003 (ip), vehicle: saline with Tween-80) was 91 % of control and the T/C [5] was 109 % of control. For the same compound, the T/C (dose: 200.0 mg/kg/injection, schedule: Q04DX003 (ip), vehicle: saline with Tween-80) was 87 % of control and the T/C (dose: 400.0 mg/kg/injection, schedule: Q04DX003 (ip), vehicle: saline with Tween-80) was 87 % of control.
`Cn1cnccc1=O` was tested, and the T/C [11] was 122 % of control, the T/C [12] was 121 % of control and the T/C [13] was 118 % of control. For the same compound, the T/C [14] was 102 % of control, the T/C [15] was 106 % of control and the T/C (dose: 400.0 mg/kg/injection, schedule: Q01DX009 (ip), vehicle: water) was 103 % of control. The T/C [16] was 115 % of control.
For `O=[N+]([O-])c1ccc(Nc2ccncc2)cc1`, the T/C (dose: 100.0 mg/kg/injection, schedule: Q04DX003 (ip), vehicle: saline) was 104 % of control, the T/C (dose: 200.0 mg/kg/injection, schedule: Q04DX003 (ip), vehicle: saline) was 95 % of control and the T/C (dose: 400.0 mg/kg/injection, schedule: Q04DX003 (ip), vehicle: saline) was 104 % of control.

From PubChem BioAssay AID328 (DTP/NCI, 2004)
